This passage reports LD50, NOEC and NOAEL results from EPA's ToxValDB 9.5 (doi:10.2903/j.efsa.2021.6237).

Series [1] has as its system Colinus virginianus. The note with it: acute; oral; mortality.
The test system of series [2] is Anas platyrhynchos. The note with it: short-term; oral; feed; mortality.
Series [3] deals with Oncorhynchus mykiss. The settings on record: chronic/long-term; duration: 60 days; other.
For series [4], the system named is Canidae. The settings on record: subchronic; duration: 90 days; oral; Dog Other; clinical chemistry.
Series [5] has as its system Tagia sp. The settings on record: chronic/long-term; duration: 56 days; reproduction.
In series [6] the test system is Apis mellifera. The note with it: acute, mortality.
Series [7] deals with Lepomis macrochirus. The note with it: acute; duration: 96 hours; mortality.
In series [8] the test system is Daphnia magna. The settings on record: chronic/long-term; duration: 21 days; reproduction.
Series [9] deals with Rattus norvegicus.

Where only a bound is given, the exact number is not on record here.

For orientation: NOAEL means the highest tested level that showed no adverse finding. Regarding `COP(=S)(OC)SCN1C(=O)c2ccccc2C1=O` [Phosmet], the LD50 was 56.2 mg/kg-day in series [1]; more than 2320 mg/kg-day in series [2]; 0.22 µg/piece in series [6] (dermal); 0.302 µg/piece in series [6] (oral, unspecified); 19.7 µg/L in series [7]; 113 mg/kg-day in series [9] (acute, oral, mortality). Moreover, the NOEC in [3] worked out at 3.2 µg/L; in [5], 2.96 mg/kg; in series [8], 0.78 µg/L. For the same compound, the NOAEL was found to be 1.88 mg/kg-day in series [4]; 1.8 mg/kg-day in series [9] (chronic, duration: 2 years, clinical chemistry); 10 mg/kg-day in series [9] (developmental, development); 1 mg/kg-day in [9] (reproduction developmental); 1.88 mg/kg-day in series [9] (subchronic, duration: 90 days, oral, clinical chemistry).
